According to patent US12473304B2, “Heterocyclic PAD4 inhibitors” (BRISTOL-MYERS SQUIBB COMPANY, priority 2020, dated 2025):

molecular target: human PAD4 (hPAD4) (Homo sapiens (Human), UniProt Q9UM07); assay: RFMS Human PAD4 Functional Assay 1; type: biochemical; details: RFMS assay 1; 5 nM hPAD4, 250 μM BAEE substrate, 50 μM calcium, 37° C.
How it was run: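 Citrullination product read by RapidFire triple-quad MRM against a modified-citrulline internal standard, after TCA stop and 30 min phenyl glyoxal step at 37 °C. Reaction: 250 μM BAEE, 5 nM human PAD4, 90 min at 37 °C, pH 7.5 HEPES buffer with 50 μM calcium and 5 μM TPEN, following 30 min compound–enzyme preincubation (max 50 μM).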

Sequence of human PAD4 (hPAD4) (Q9UM07 whole entry): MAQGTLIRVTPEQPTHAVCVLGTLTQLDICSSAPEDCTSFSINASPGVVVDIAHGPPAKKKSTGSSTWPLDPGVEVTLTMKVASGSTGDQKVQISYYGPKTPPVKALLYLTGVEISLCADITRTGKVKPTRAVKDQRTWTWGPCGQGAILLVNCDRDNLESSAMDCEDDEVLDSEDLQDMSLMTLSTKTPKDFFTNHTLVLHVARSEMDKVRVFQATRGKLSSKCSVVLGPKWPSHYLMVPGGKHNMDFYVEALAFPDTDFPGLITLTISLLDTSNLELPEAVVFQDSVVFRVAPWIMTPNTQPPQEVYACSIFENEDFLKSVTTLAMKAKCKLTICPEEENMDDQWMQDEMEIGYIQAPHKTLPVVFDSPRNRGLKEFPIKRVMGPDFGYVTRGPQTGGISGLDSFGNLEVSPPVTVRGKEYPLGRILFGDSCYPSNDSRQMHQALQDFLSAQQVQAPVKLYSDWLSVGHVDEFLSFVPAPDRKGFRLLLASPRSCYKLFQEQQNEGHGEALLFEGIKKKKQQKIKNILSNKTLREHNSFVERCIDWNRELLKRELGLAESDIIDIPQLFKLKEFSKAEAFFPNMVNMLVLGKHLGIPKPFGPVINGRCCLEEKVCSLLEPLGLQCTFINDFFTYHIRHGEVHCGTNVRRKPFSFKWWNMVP

Row | IC50 | Compound
1 | 1710 nM | COC(C)(C)C(=O)N1CCC(c2cccc3cc(-c4nn5cc(C(=O)N6CCC[C@@H](N)C6)cc(F)c5c4C)n(CC4CC4)c23)CC1 [Example 418, (R)-1-(4-(2-(6-(3-Aminopiperidin-1-carbonyl)-4-fluoro-3-methylpyrazolo[1,5-a]pyridin-2-yl)-1-(cyclopropylmethyl)-1H-indol-7-yl)piperidin-1-yl)-2-methoxy-2-methylpropan-1-one]
2 | 150 nM | CO[C@@H](C)C(=O)N1CCC(c2cccc3cc(-c4nn5cc(C(=O)N6C[C@H](N)C[C@@H](F)C6)cc(F)c5c4C)n(CC4CC4)c23)CC1 [Example 423, (S)-1-(4-(2-(6-((3R,5R)-3-Amino-5-fluoropiperidine-1-carbonyl)-4-fluoro-3-methylpyrazolo[1,5-a]pyridin-2-yl)-1-(cyclopropylmethyl)-1H-indol-7-yl)piperidin-1-yl)-2-methoxypropan-1-one]
3 | 80 nM | CO[C@@H](C)C(=O)N1CCC(c2cccc3cc(-c4nn5cc(C(=O)N6CCC[C@@H](N)C6)cc(F)c5c4C)n(CC4CC4)c23)CC1 [Example 424, (S)-1-(4-(2-(6-((R)-3-Aminopiperidine-1-carbonyl)-4-fluoro-3-methylpyrazolo[1,5-a]pyridin-2-yl)-1-(cyclopropylmethyl)-1H-indol-7-yl)piperidin-1-yl)-2-methoxypropan-1-one]
4 | 50 nM | CO[C@H](C)C(=O)N1CCC(c2cccc3cc(-c4nn5cc(C(=O)N6C[C@H](N)C[C@@H](F)C6)cc(F)c5c4C)n(CC4CC4)c23)CC1 [Example 425, (R)-1-(4-(2-(6-((3R,5R)-3-Amino-5-fluoropiperidine-1-carbonyl)-4-fluoro-3-methylpyrazolo[1,5-a]pyridin-2-yl)-1-(cyclopropylmethyl)-1H-indol-7-yl)piperidin-1-yl)-2-methoxypropan-1-one]
5 | 50 nM | CO[C@H](C)C(=O)N1CCC(c2cccc3cc(-c4nn5cc(C(=O)N6CCC[C@@H](N)C6)cc(F)c5c4C)n(CC4CC4)c23)CC1 [Example 426, (R)-1-(4-(2-(6-((R)-3-Aminopiperidine-1-carbonyl)-4-fluoro-3-methylpyrazolo[1,5-a]pyridin-2-yl)-1-(cyclopropylmethyl)-1H-indol-7-yl)piperidin-1-yl)-2-methoxypropan-1-one]
6 | 20 nM | CC(=O)N1CCC(c2cccc3cc(-c4nn5cc(C(=O)N6C[C@H](N)C[C@@H](F)C6)cc(F)c5c4C)n(CC4CC4)c23)CC1 [Example 427, 1-(4-(2-(6-((3R,5R)-3-Amino-5-fluoropiperidine-1-carbonyl)-4-fluoro-3-methylpyrazolo[1,5-a]pyridin-2-yl)-1-(cyclopropylmethyl)-1H-indol-7-yl)piperidin-1-yl)ethan-1-one]
7 | 30 nM | COCC(=O)N1CCC(c2cccc3cc(-c4nn5cc(C(=O)N6C[C@H](N)C[C@@H](F)C6)cc(F)c5c4C)n(CC4CC4)c23)CC1 [Example 428, 1-(4-(2-(6-((3R,5R)-3-Amino-5-fluoropiperidine-1-carbonyl)-4-fluoro-3-methylpyrazolo[1,5-a]pyridin-2-yl)-1-(cyclopropylmethyl)-1H-indol-7-yl)piperidin-1-yl)-2-methoxyethan-1-one]
8 | 40 nM | COCC(=O)N1CCC(c2cccc3cc(-c4nn5cc(C(=O)N6CCC[C@@H](N)C6)cc(F)c5c4C)n(CC4CC4)c23)CC1 [Example 429, (R)-1-(4-(2-(6-(3-Aminopiperidine-1-carbonyl)-4-fluoro-3-methylpyrazolo[1,5-a]pyridin-2-yl)-1-(cyclopropylmethyl)-1H-indol-7-yl)piperidin-1-yl)-2-methoxyethan-1-one]
9 | 80 nM | Cc1c(-c2cc3cccc(C4CCN(C(=O)CCO)CC4)c3n2CC2CC2)nn2cc(C(=O)N3C[C@H](N)C[C@@H](F)C3)ccc12 [Example 430, 1-(4-(2-(6-((3R,5R)-3-amino-5-fluoropiperidine-1-carbonyl)-3-methylpyrazolo[1,5-a]pyridin-2-yl)-1-(cyclopropylmethyl)-1H-indol-7-yl)piperidin-1-yl)-3-hydroxypropan-1-one]
10 | 130 nM | Cc1c(-c2cc3cccc(C4CCN(C(=O)COC(C)C)CC4)c3n2CC2CC2)nn2cc(C(=O)N3C[C@H](N)C[C@@H](F)C3)ccc12 [Example 431, 1-(4-(2-(6-((3R,5R)-3-amino-5-fluoropiperidine-1-carbonyl)-3-methylpyrazolo[1,5-a]pyridin-2-yl)-1-(cyclopropylmethyl)-1H-indol-7-yl)piperidin-1-yl)-2-isopropoxyethan-1-one]
11 | 200 nM | Cc1c(-c2cc3cccc(C4CCN(C(=O)COC(C)C)CC4)c3n2CC2CC2)nn2cc(C(=O)N3CCC[C@@H](N)C3)ccc12 [Example 432, (R)-1-(4-(2-(6-(3-aminopiperidine-1-carbonyl)-3-methylpyrazolo[1,5-a]pyridin-2-yl)-1-(cyclopropylmethyl)-1H-indol-7-yl)piperidin-1-yl)-2-isopropoxyethan-1-one]
12 | 140 nM | Cc1c(-c2cc3cccc(C4CCN(C(=O)C(C)(C)CO)CC4)c3n2CC2CC2)nn2cc(C(=O)N3C[C@H](N)C[C@@H](F)C3)ccc12 [Example 433, 1-(4-(2-(6-((3R,5R)-3-amino-5-fluoropiperidine-1-carbonyl)-3-methylpyrazolo[1,5-a]pyridin-2-yl)-1-(cyclopropylmethyl)-1H-indol-7-yl)piperidin-1-yl)-3-hydroxy-2,2-dimethylpropan-1-one]
13 | 250 nM | Cc1c(-c2cc3cccc(C4CCN(C(=O)C(C)(C)CO)CC4)c3n2CC2CC2)nn2cc(C(=O)N3CCC[C@@H](N)C3)ccc12 [Example 434, (R)-1-(4-(2-(6-(3-aminopiperidine-1-carbonyl)-3-methylpyrazolo[1,5-a]pyridin-2-yl)-1-(cyclopropylmethyl)-1H-indol-7-yl)piperidin-1-yl)-3-hydroxy-2,2-dimethylpropan-1-one]
14 | 380 nM | Cc1c(-c2cc3cccc(C4CCN(C(=O)C(C)(C)O)CC4)c3n2CC2CC2)nn2cc(C(=O)N3C[C@H](N)C[C@@H](F)C3)ccc12 [Example 435, 1-(4-(2-(6-((3R,5R)-3-amino-5-fluoropiperidine-1-carbonyl)-3-methylpyrazolo[1,5-a]pyridin-2-yl)-1-(cyclopropylmethyl)-1H-indol-7-yl)piperidin-1-yl)-2-hydroxy-2-methylpropan-1-one]
15 | 300 nM | Cc1c(-c2cc3cccc(C4CCN(C(=O)C(C)(C)O)CC4)c3n2CC2CC2)nn2cc(C(=O)N3CCC[C@@H](N)C3)ccc12 [Example 436, (R)-1-(4-(2-(6-(3-aminopiperidine-1-carbonyl)-3-methylpyrazolo[1,5-a]pyridin-2-yl)-1-(cyclopropylmethyl)-1H-indol-7-yl)piperidin-1-yl)-2-hydroxy-2-methylpropan-1-one]
16 | 110 nM | Cc1c(-c2cc3cccc(C4CCN(C(=O)CCO)CC4)c3n2CC2CC2)nn2cc(C(=O)N3CCC[C@@H](N)C3)ccc12 [Example 437, (R)-1-(4-(2-(6-(3-aminopiperidine-1-carbonyl)-3-methylpyrazolo[1,5-a]pyridin-2-yl)-1-(cyclopropylmethyl)-1H-indol-7-yl)piperidin-1-yl)-3-hydroxypropan-1-one]
17 | 30 nM | Cc1c(-c2cc3cccc(C4CCN(C(=O)CO)CC4)c3n2CC2CC2)nn2cc(C(=O)N3C[C@H](N)C[C@@H](F)C3)ccc12 [Example 438, 1-(4-(2-(6-((3R,5R)-3-amino-5-fluoropiperidine-1-carbonyl)-3-methylpyrazolo[1,5-a]pyridin-2-yl)-1-(cyclopropylmethyl)-1H-indol-7-yl)piperidin-1-yl)-2-hydroxyethan-1-one]
